In ChEMBL document CHEMBL5375956, “Discovery of Pyrazolo[1,5-a]pyrimidine Derivative as a Novel and Selective ALKBH5 Inhibitor for the Treatment of AML” (J Med Chem, 2023):
The source made the active and inactive calls. The calls are words filed in the database; no cut-off is given here.

What was measured:
[1] = Toxicity in nude mouse xenografted with human MV4-11 cells assessed as kidney weight change at 10 to 40 mg/kg, ip treated every day for 14 days; format: organism-based; settings: in vivo, 336 h, dose 10-40 mg/kg, time 14 day
MOLM-13 [2] = test: Induction of apoptosis in human MOLM-13 cells assessed as early apoptosis cells at 10 uM incubated for 48 hrs by Annexin V-FITC/PI staining based flow cytometry (reference value: 2.72 %); format: functional
MV4-11 [3] = test: Antitumor activity against human MV4-11 cells xenografted in nude mouse assessed as reduction in tumor weight at 10 to 40 mg/kg, ip treated every day for 14 days; format: functional, organism-based; settings: dose 10-40 mg/kg, time 14.0 day
[4] = biological target: T1, Alpha-ketoglutarate-dependent dioxygenase alkB homolog 3 (Homo sapiens) (UniProt Q96Q83); test: Inhibition of ALKBH3 (62 to 286 residues)(unknown origin) expressed in Escherichia coli BL21(DE3) using 5'-TAGACATTGCCATTCTCGATAGG(m6A)-TCCGGTCAAACCTAGACGAATTCCA-3' as substrate at 100 uM incubated for 2 hrs by restriction endonuclease digestion assay
T1 sequence (whole entry): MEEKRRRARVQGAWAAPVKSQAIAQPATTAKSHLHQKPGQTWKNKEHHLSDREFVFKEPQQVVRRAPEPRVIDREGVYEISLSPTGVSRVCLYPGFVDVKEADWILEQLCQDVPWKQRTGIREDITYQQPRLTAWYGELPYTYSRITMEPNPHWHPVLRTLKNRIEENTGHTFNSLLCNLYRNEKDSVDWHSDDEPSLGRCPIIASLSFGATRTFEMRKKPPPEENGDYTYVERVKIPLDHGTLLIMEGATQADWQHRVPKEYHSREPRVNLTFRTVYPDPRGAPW

RNA demethylase ALKBH5 [5] = biological target: T2, RNA demethylase ALKBH5 (Homo sapiens, UniProt Q6P6C2); test: Binding affinity to NT-647-NHS fluorescent dye-labeled wild-type ALKBH5 (66 to 292 residues)(unknown origin) expressed in Escherichia coli BL21(DE3) using m6A-ssDNA as substrate assessed as dissociation constant incubated for 15 mins by MST assay
Target sequence in this assay (Q6P6C2 whole entry, the tested form may be a part): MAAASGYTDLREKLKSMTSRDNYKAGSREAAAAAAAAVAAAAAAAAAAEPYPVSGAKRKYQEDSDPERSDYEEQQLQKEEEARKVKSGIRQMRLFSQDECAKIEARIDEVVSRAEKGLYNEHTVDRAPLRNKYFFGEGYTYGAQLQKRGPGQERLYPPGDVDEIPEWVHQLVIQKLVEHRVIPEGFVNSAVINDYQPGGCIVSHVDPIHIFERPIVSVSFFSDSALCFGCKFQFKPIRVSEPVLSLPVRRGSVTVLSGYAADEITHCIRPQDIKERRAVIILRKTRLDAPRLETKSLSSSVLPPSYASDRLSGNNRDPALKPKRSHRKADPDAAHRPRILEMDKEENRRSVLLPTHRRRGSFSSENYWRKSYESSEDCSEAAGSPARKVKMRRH

MOLM-13 [6] = test: Induction of apoptosis in human MOLM-13 cells assessed as early apoptosis cells at 5 uM incubated for 48 hrs by Annexin V-FITC/PI staining based flow cytometry (reference value: 2.72 %); format: functional
[7] = MRT in Sprague-Dawley rat at 10 mg/kg, po measured for 1 to 1440 mins by LC-MS/MS analysis; format: ADME, organism-based; settings: in vivo, time 1-1440 min
HEK293 = test: Effect on c-Myc mRNA level in HEK293 cells at 5 to 10 uM incubated for 48 hrs by qRT-PCR analysis; format: functional, cell-based; settings: Homo sapiens, dose 5-10 µM
[8] = Oral bioavailability in Sprague-Dawley rat at 10 mg/kg measured for 1 to 1440 mins by LC-MS/MS analysis; format: ADME, organism-based; settings: in vivo, time 1-1440 min
RNA demethylase ALKBH5 [9] = biological target: T2, RNA demethylase ALKBH5; test: Inhibition of ALKBH5 (66 to 292 residues)(unknown origin) expressed in Escherichia coli BL21(DE3) using 5'-TAGACATTGCCATTCTCGATAGG (m6A)-TC CGGTCAAACCTAGAC GAATTCCA-3' as substrate incubated for 2 hrs by restriction endonuclease digestion assay; settings: dose 25-200 µM
Target sequence in this assay (Q6P6C2 2-394 limits assumed): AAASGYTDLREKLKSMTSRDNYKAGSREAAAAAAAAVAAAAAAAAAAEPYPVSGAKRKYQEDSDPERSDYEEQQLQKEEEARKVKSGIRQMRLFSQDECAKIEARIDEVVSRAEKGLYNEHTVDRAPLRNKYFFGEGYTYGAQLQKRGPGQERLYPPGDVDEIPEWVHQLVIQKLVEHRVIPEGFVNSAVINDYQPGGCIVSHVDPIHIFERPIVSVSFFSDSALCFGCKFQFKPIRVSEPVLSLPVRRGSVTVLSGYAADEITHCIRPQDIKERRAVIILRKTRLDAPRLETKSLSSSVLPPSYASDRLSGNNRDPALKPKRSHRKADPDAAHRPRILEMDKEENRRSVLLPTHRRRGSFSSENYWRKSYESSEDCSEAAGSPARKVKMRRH

MV4-11 [10] = test: Induction of apoptosis in human MV4-11 cells assessed as late apoptosis cells at 10 uM incubated for 48 hrs by Annexin V-FITC/PI staining based flow cytometry (reference value: 7.17 %); format: functional
[11] = biological target: T3, Alpha-ketoglutarate-dependent dioxygenase FTO (Homo sapiens, UniProt Q9C0B1); test: Inhibition of FTO (32 to 505 residues)(unknown origin) expressed in Escherichia coli BL21(DE3) by FP assay
Target sequence in this assay (Q9C0B1 whole entry, the tested form may be a part): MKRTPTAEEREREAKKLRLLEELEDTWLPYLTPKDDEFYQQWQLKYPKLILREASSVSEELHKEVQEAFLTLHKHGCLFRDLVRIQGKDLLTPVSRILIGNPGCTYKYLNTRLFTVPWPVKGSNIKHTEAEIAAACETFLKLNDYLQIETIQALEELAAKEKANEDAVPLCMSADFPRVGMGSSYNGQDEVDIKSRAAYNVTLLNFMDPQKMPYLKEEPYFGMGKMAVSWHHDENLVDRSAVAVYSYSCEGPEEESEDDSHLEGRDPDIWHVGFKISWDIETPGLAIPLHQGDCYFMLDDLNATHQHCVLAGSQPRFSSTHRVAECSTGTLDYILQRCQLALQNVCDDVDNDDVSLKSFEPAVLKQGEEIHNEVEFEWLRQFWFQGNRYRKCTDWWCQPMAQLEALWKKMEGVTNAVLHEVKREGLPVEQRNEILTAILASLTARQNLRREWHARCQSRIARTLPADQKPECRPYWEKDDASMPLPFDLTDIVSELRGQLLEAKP

[12] = Metabolic stability in human plasma assessed as half life measured upto 240 mins by LC-MS/MS analysis; format: ADME, cell-free
RNA demethylase ALKBH5 [13] = biological target: T2, RNA demethylase ALKBH5; test: Inhibition of ALKBH5 (66 to 292 residues)(unknown origin) expressed in Escherichia coli BL21(DE3) using 5'-ATTGTCA(m6A)CAGCAGA-FAM-3' as substrate incubated for 30 mins by FP assay
Target sequence in this assay (Q6P6C2 whole entry, the tested form may be a part): as the sequence (Q6P6C2 whole entry, the tested form may be a part) above

MV4-11 [14] = test: Induction of apoptosis in human MV4-11 cells assessed as necrotic cells at 5 uM incubated for 48 hrs by Annexin V-FITC/PI staining based flow cytometry (reference value: 1.81 %); format: functional
RNA demethylase ALKBH5 [15] = biological target: T2, RNA demethylase ALKBH5; test: Binding affinity to ALKBH5 in human MOLM-13 cells assessed as thermal shift heating at 200 uM incubated for 30 mins followed by heating at 45 to 67 degreeC measured for 3 mins by CETSA assay; format: cell-based
Target sequence in this assay (Q6P6C2 2-394 limits assumed): as the sequence (Q6P6C2 2-394 limits assumed) above

[16] = Apparent oral clearance in Sprague-Dawley rat at 10 mg/kg, po measured for 1 to 1440 mins by LC-MS/MS analysis; format: ADME, organism-based; settings: in vivo, time 1-1440 min
MOLM-13 [17] = test: Downregulation of c-Myc mRNA level in human MOLM-13 cells at 5 to 10 uM incubated for 48 hrs by qRT-PCR analysis; format: functional, cell-based; settings: dose 5-10 µM
MOLM-13 [18] = test: Antiproliferative activity against human MOLM-13 cells assessed as inhibition of cell proliferation incubated for 72 hrs by Cell Titer Luminescence assay; format: functional, cell-based; settings: MOLM-13, 72 h
MV4-11 [19] = test: Downregulation of TACC3 mRNA level in human MV4-11 cells assessed as half life of expression at 20 umol/L incubated for 24 hrs by qRT-PCR analysis (reference value: 2.63 hrs); format: functional, cell-based; settings: dose 20.0 µmol/L
[20] = Apparent oral clearance in Sprague-Dawley rat at 2 mg/kg, iv measured for 1 to 1440 mins by LC-MS/MS analysis; format: ADME, organism-based; settings: in vivo, time 1-1440 min
[21] = biological target: T3, Alpha-ketoglutarate-dependent dioxygenase FTO; test: Binding affinity to NT-647-NHS fluorescent dye-labeled FTO (32 to 505 residues)(unknown origin) expressed in Escherichia coli BL21(DE3) using m6A-ssDNA as substrate incubated for 15 mins by MST assay
Target sequence in this assay (Q9C0B1 whole entry, looked up, the tested form may be a part): as the sequence (Q9C0B1 whole entry, the tested form may be a part) above

[22] = AUC (0 to infinity) in Sprague-Dawley rat at 10 mg/kg, po measured for 1 to 1440 mins by LC-MS/MS analysis; format: ADME, organism-based; settings: in vivo
[23] = Apparent volume of distribution during terminal phase in Sprague-Dawley rat at 10 mg/kg, po measured for 1 to 1440 mins by LC-MS/MS analysis; format: ADME, organism-based; settings: in vivo, time 1-1440 min, read-out: Vz/F
[24] = Toxicity in nude mouse xenografted with human MV4-11 cells assessed as lung weight change at 10 to 40 mg/kg, ip treated every day for 14 days; format: organism-based; settings: in vivo, 336 h, dose 10-40 mg/kg, time 14 day
[25] = Toxicity in nude mouse xenografted with human MV4-11 cells assessed as spleen weight change at 10 to 40 mg/kg, ip treated every day for 14 days; format: organism-based; settings: in vivo, 336 h, dose 10-40 mg/kg, time 14 day
MV4-11 [26] = test: Antiproliferative activity against human MV4-11 cells assessed as inhibition of cell proliferation incubated for 72 hrs by Cell Titer Luminescence assay; format: functional, cell-based; settings: MV4-11, 72 h
MV4-11 [27] = test: Antitumor activity against human MV4-11 cells xenografted in nude mouse assessed as tumor growth inhibition at 10 mg/kg, ip treated every day for 14 days relative to control; format: functional; settings: MV4-11, 336 h, time 14 day, read-out: TGI
MV4-11 [28] = test: Antitumor activity against human MV4-11 cells xenografted in nude mouse assessed as tumor growth inhibition at 40 mg/kg, ip treated every day for 14 days relative to control; format: functional; settings: MV4-11, 336 h, time 14 day, read-out: TGI

O=C(OCc1ccc(C(F)(F)F)cc1)c1ccc(-c2cc3ncc(C(=O)c4c(O)ccc([N+](=O)[O-])c4O)cn3n2)cc1
Activity [1]: Non-Toxic
Activity (MOLM-13 [2]): 2.88%
Activity (MV4-11 [3]): Active
inhibition [4]: inactive
Kd (RNA demethylase ALKBH5 [5]): 11200 nM
Activity (MOLM-13 [6]): 2.91%
MRT [7]: 2.8 h
Activity (HEK293): inactive
bioavailability [8]: 17.3%
inhibition (RNA demethylase ALKBH5 [9]): Dose-Dependent Effect
Activity (MV4-11 [10]): 55.4%
IC50 [11]: > 200000 nM
half-life [12]: 10.4 h
IC50 (RNA demethylase ALKBH5 [13]): 2970 nM
Activity (MV4-11 [14]): 3.62%
Activity (RNA demethylase ALKBH5 [15]): Active
CL/F [16]: 28.8 mL/min/kg
Activity (MOLM-13 [17]): Active
IC50 (MOLM-13 [18]): 450 nM
T1/2 (MV4-11 [19]): 1.96 h
CL/F [20]: 5 mL/min/kg
Activity [21]: inactive
AUC(0-inf) [22]: 5820 ng·h/mL
Vd/F [23]: 6.18 L/kg
Activity [24]: Non-Toxic
Activity [25]: Non-Toxic
IC50 (MV4-11 [26]): 1200 nM
inhibition in vivo at 10 mg/kg (MV4-11 [27]): 56.3%
inhibition in vivo at 40 mg/kg (MV4-11 [28]): 70.5%
